Measured values: patent US11083197B2, “Herbicidal composition comprising chromone derivatives and a method for weed control” (INVESTIGACIONES BIOLÓGICAS EN AGROQUÍMICOS ROSARIO S.A., priority 2015, dated 2021)

Tests used:
lettuce (Lactuca sativa) = test: Germination / dose-response bioassay with lettuce; format: in vivo; conditions: 1 mM; 24-well plates; rating scale of 0 to 5
Experimental: (§1) DCM extract of flowers of A. visnaga (1.6 g) was divided in two 800 mg halves and each one was subjected to column chromatography using an Isolera One system (Biotage), equipped with UV detector (302 and 365 nm) and automatic fraction collector. Separation was performed by normal-phase chromatography column using a SNAP Cartridge KP-Sil (37×157 mm, 50 μm irregular silica, 100 g, Biotage) and a pre-packaged SNAP Samplet Cartridge KP-Sil (37×17 mm, Biotage). A full gradient of hexane:ethyl acetate was used for elution, from 100:0 to 0:100 over 3000 ml. Flow was 40 ml/min and 25 ml fractions were collected. Equal fractions were combined based on similarities on their TLC and chromatogram profiles providing nineteen fractions named I to XIX. All fractions were evaluated for their phytotoxicity on germination bioassay of lettuce (L. sativa) and creeping bentgrass (A. stolonifera).
(§2) A filter paper and 5 lettuce or 10 mg of creeping bentgrass seeds were placed in each well of a 24-well plate. Stock solutions (10×) of test compounds were prepared in acetone. 180 μl of distilled water were added to each well together with 20 μl of stock solution or acetone in solvent control. Final concentration of acetone was 10% v/v. Plates were sealed with Parafilm, and incubated at 26° C. in a growth chamber set at 173 μmol m^−2 s^−1 continuous photosynthetically active radiation. Phytotoxic activity was qualitatively evaluated by visually comparing germination in each well with solvent control at 7 days. A qualitative estimation of phytotoxicity was obtained by using a rating scale of 0 to 5, where 0 was no effect, and 5 was no germination of seeds. This procedure was also used for testing the phytotoxicity of pure compounds on ryegrass. On this experiment 12-well plates were used. 10 seeds were placed per well and final volume was 300 μl in each one. During dose-response bioassays used for IC50 determination, germination percentage and length of plants were measured at 7 days in order to determine the concentration required for 50% germination and growth inhibition (IC50). All experiments were done in triplicate.
Using method described in Example 1, compounds of Formula III and IV above were tested against lettuce and ryegrass.
The percentage of germination and length of plants were determined at 7 days. Data represents means of three replicates±SD. The IC50 values, for both germination and growth inhibition by compounds III and IV on lettuce and ryegrass, were obtained from estimated parameters in the regression curves.
Statistical Analysis. Data from dose-response experiments were analyzed by a log-logistic model^37-38 using the dose-response curve module^39 of R software version 2.2.1.^40 Concentrations required for 50% germination or growth inhibition relative to control (IC50 values) were obtained from estimated parameters in the regression curves. The standard error (SE) of each estimation is provided. Data from phytotoxicity bioassays in the laboratory and greenhouse, ROS and cell death quantifications were analyzed by ANOVA using the InfoStat statistical software version 2015,^41 and Scheffe's test was employed to compare the means at α=0.05.

[1] = system: creeping bentgrass (A. stolonifera); test: Germination bioassay with creeping bentgrass; format: in vivo, Agrostis stolonifera; conditions: 1 mM; 24-well plates; rating scale of 0 to 5
Experimental: as §1, §2

ryegrass = test: Postemergence bioassay with ryegrass in Petri dishes; format: in vivo; conditions: Lolium multiflorum, post-emergence, day 6 (4 days after application), read-out: Growth inhibition (%) as percentage of control
Experimental: Plant length was measured at day 6 (4 days after application of the compounds)
Plant length's axis starts in 5 mm because seeds were pre-incubated in water, so all seedlings were around 5 mm long at the beginning of the treatment.

lettuce = test: Postemergence bioassay with lettuce in Petri dishes; format: in vivo; conditions: Lactuca sativa, post-emergence, read-out: Average growth inhibition (%) as percentage of control
Experimental: Compounds of formula III and IV above were tested at different concentrations in a postemergence bioassay (in Petri dishes) against lettuce. Lettuce seeds were pre-incubated in Petri dishes with a filter paper and water for 2 days. After that, seedlings (15 mm approx.) were moved to a new Petri dish containing 4 mL of an aqueous solution of each compound or commercial herbicide. Plants length was measured at day 6 (4 days after postemergence application of the compounds). The results were compared to those obtained with acetochlor and glyphosate.
Plant length's axis starts in 15 mm because seeds were pre-incubated in water, so all seedlings were around 15 mm long at the beginning of the treatment.

SMILES | Phytotoxicity at day 7, Lettuce (lettuce (Lactuca sativa)) | Phytotoxicity at day 7, Creeping bentgrass [1] | further results
O=c1ccoc2ccccc12 [Chromone, 1-benzopyran-4-one] | 3 | 4 | –
O=C(O)CNCP(=O)(O)O [Glyphosate, reference compound] | – | – | inhibition at 750 µM (ryegrass; 750 μM): 75%; inhibition at 750 µM (lettuce): 45%
CCOCN(C(=O)CCl)c1c(C)cccc1CC [Acetochlor, reference compound] | – | – | inhibition at 540 µM (ryegrass; 540 μM): 97%; inhibition at 540 µM (lettuce; 0.54 mM, day 6 (4 days after postemergence application)): 60%
COc1c2occc2c(OC)c2c(=O)cc(C(=O)O)oc12 [4,9-dimethoxy-5-oxo-5H-furo[3,2-g]chromen-7-carboxilic acid] | 3 | 3 | –
Cc1cc(=O)c2c(O)c3ccoc3c(O)c2o1 [4,9-dihydroxy-7-methyl-5H-furo[3,2-g]chromen-5-one] | 3 | 1 | –
COc1c2ccoc2cc2oc(COC3OC(CO)C(O)C(O)C3O)cc(=O)c12 (centres unmarked) [Khelloside, Khellol-glucoside] | 1 | 2 | –
COc1c2occc2c(O)c2c(=O)cc(C)oc12 [4-hydroxy-9-methoxy-7-methyl-5H-furo[3,2-g]chromen-5-one] | 2 | 1 | –
